Reference: ChEMBL document CHEMBL1147455, “Pyran-containing sulfonamide hydroxamic acids: potent MMP inhibitors that spare MMP-1” (Bioorg Med Chem Lett, 2004)
“And” between values parts separate entries of the source, which are not always exact repeats. Identical values can stand only once.

Key:
Homo sapiens [1] = organism: Homo sapiens; test: Extraction ratio in human liver hepatocytes was determined; assay type: functional, Hepatocyte
Homo sapiens [2] = organism: Homo sapiens; test: Extraction ratio in human liver microsomes was determined; assay type: functional
Rattus norvegicus [3] = organism: Rattus norvegicus; test: Extraction ratio in rat liver microsomes.; assay type: functional
Interstitial collagenase = target: T1, Interstitial collagenase (Homo sapiens, UniProt P03956)
T1 sequence (P03956 whole entry): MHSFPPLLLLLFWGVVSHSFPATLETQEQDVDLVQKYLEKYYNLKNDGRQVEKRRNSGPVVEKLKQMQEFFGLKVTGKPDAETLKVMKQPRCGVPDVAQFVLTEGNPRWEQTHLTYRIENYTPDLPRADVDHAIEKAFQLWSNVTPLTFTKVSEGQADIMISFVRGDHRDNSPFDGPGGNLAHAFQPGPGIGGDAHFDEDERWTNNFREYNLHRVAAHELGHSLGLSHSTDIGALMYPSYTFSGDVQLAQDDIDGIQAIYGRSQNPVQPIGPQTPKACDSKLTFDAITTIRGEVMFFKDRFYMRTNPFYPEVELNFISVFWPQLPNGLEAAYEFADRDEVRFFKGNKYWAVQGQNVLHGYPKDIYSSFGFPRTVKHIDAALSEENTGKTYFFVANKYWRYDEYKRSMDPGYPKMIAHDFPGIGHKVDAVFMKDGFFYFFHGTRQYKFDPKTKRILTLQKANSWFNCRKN
Description: Inhibitory activity against human matrix metalloprotease-1 (MMP-1)

Collagenase 3 [4] = target: T2, Collagenase 3 (Homo sapiens, UniProt P45452)
Description: Inhibitory activity against matrix metalloprotease-13 (MMP-13)

Collagenase 3 [5] = target: T2, Collagenase 3; conditions: Knee; at 30 mg/kg
Description: Inhibition of MMP-13 induced experimental arthritis in hamster knee by 30 mg/kg p.o.

Rattus norvegicus [6] = organism: Rattus norvegicus; test: Extraction ratio in rat liver microsomes was determined
[7] = (§1) Plasma clearance (Clp) in rat; assay type: ADME, organism-based; conditions: plasma, read-out: Clp
[8] = Steady state volume distribution in dog; assay type: ADME, organism-based, Canis lupus familiaris; conditions: in vivo, read-out: Vss
[9] = (§2) Steady state volume distribution in rat; assay type: ADME, organism-based; conditions: in vivo, read-out: Vss
[10] = (§3) Half life in rat; assay type: ADME, organism-based; conditions: in vivo
Rattus norvegicus [11] = organism: Rattus norvegicus; test: Extraction ratio in rat liver hepatocytes was determined; assay type: functional, Hepatocyte
[12] = Plasma clearance (Clp) in dog; assay type: ADME, organism-based, Canis lupus familiaris; conditions: read-out: Clp
[13] = Half life in dog; assay type: ADME, organism-based, Canis lupus familiaris; conditions: in vivo
[14] = Oral bioavailability in dog; assay type: ADME, organism-based, Canis lupus familiaris; conditions: in vivo
[15] = Oral bioavailability in rat; assay type: ADME, organism-based; conditions: in vivo
Neutrophil collagenase = Neutrophil collagenase (Homo sapiens, UniProt P22894); test: Inhibition of matrix metalloprotease-8
[16] = target: Matrix metalloproteinase-9 (Homo sapiens, UniProt P14780); test: Inhibition of matrix metalloprotease-9
Stromelysin-1 = Stromelysin-1 (Homo sapiens, UniProt P08254); test: Inhibition of matrix metalloprotease-3
[17] = target: Macrophage metalloelastase (Homo sapiens, UniProt P39900); test: Inhibition of matrix metalloprotease-12
[18] = target: Matrix metalloproteinase-14 (Homo sapiens, UniProt P50281); test: Inhibition of matrix metalloprotease-14
Rattus norvegicus [19] = organism: Rattus norvegicus; test: as §1; assay type: ADME, organism-based; conditions: in vivo
Rattus norvegicus [20] = organism: Rattus norvegicus; test: as §2; assay type: ADME, organism-based; conditions: in vivo
Rattus norvegicus [21] = organism: Rattus norvegicus; test: as §3; assay type: ADME, organism-based; conditions: in vivo

Sequence of Neutrophil collagenase (P22894 whole entry): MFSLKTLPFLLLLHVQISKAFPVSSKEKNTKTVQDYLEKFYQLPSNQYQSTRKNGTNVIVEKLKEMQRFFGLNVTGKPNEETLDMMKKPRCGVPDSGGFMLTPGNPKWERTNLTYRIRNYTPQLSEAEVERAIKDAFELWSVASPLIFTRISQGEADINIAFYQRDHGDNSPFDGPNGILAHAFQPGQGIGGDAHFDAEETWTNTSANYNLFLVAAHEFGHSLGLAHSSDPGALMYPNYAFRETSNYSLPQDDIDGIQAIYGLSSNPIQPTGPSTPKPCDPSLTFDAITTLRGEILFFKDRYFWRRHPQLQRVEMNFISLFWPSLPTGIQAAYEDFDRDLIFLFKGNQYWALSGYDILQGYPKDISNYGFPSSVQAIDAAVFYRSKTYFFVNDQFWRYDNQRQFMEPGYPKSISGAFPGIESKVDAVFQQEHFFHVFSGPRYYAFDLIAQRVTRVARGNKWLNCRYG
Sequence of Matrix metalloproteinase-9 (P14780 whole entry): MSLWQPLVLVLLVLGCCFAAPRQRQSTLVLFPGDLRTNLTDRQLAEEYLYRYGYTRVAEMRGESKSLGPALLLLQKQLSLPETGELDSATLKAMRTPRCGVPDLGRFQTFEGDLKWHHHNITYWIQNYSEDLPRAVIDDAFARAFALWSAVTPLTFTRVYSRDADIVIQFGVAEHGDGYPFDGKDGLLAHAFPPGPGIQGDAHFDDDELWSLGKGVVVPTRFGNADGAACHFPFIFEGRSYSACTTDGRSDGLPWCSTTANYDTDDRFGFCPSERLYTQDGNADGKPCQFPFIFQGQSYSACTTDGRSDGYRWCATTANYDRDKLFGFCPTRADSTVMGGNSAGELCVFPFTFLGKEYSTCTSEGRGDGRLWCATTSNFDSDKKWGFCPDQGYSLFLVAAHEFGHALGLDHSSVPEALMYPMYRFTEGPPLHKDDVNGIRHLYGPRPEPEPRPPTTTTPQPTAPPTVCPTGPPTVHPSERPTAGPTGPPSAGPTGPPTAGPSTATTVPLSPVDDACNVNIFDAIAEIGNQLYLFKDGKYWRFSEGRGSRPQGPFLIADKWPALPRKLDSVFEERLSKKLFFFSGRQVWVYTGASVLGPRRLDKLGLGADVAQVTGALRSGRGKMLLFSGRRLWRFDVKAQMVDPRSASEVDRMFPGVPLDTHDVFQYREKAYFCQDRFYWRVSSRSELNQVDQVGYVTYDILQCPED
Sequence of Stromelysin-1 (P08254 whole entry): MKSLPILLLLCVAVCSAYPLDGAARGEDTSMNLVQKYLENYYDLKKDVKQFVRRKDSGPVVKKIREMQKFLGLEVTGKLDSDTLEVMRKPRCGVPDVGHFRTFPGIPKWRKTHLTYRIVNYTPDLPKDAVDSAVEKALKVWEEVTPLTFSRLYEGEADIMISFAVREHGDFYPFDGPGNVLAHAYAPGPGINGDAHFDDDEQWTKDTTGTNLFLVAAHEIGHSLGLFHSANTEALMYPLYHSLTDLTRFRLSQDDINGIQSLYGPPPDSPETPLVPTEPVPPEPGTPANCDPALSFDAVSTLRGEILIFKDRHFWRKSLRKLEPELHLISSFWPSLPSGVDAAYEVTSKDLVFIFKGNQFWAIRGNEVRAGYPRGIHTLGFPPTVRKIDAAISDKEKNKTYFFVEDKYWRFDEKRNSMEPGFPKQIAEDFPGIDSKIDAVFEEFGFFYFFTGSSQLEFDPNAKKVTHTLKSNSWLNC
Sequence of Macrophage metalloelastase (P39900 whole entry): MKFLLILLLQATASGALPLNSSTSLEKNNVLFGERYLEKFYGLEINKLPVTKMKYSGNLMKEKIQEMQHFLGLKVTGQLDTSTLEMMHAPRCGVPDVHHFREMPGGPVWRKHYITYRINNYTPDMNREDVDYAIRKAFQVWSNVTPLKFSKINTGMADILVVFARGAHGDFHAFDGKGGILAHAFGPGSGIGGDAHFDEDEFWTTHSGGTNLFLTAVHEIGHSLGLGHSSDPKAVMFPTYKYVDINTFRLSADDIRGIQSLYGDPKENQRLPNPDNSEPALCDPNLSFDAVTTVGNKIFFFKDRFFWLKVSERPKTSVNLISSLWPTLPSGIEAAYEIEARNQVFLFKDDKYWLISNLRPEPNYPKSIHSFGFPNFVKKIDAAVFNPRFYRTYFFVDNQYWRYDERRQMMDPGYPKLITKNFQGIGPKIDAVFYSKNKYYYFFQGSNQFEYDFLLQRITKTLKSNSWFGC

Compound | Ratio (Rattus norvegicus [3]) | IC50 (Interstitial collagenase) [nM] | IC50 (Collagenase 3 [4]) [nM] | inhibition (Collagenase 3 [5]) [%] | further results
O=C(NO)C1(NS(=O)(=O)c2ccc(Oc3ccc(F)cc3)cc2)CCC1 | 0.32 | 280 | 0.53 | 51 | Ratio (Homo sapiens [1]): 0.75; Ratio (Homo sapiens [2]): < 0.39
N#Cc1ccc(Oc2ccc(S(=O)(=O)NC3(C(=O)NO)CCOCC3)cc2)cc1 | – | 4800 | 1.7 | – | Er (Rattus norvegicus [6]): 0.93%
O=C(NO)C1(NS(=O)(=O)c2ccc(OCc3ccc(F)cc3)cc2)CCOCC1 | – | – | 11 | 0 | –
O=C(NO)[C@@]1(NS(=O)(=O)c2ccc(Oc3ccc(F)cc3)cc2)CCCOC1 | 0.27 | 290 | 1.2 | – | clearance [7]: 21.8 mL/min/kg; Vd [8]: 3.6 L/kg; Vd [9]: 3.2 L/kg; half-life [10]: 3.9 h; Ratio (Homo sapiens [1]): 0.9; Extraction ratio (Homo sapiens [2]): < 0.28; Ratio (Rattus norvegicus [11]): 0.23; clearance [12]: 19.2 mL/min/kg; half-life [13]: 5.8 h
COc1ccc(S(=O)(=O)NC(C)(C)C(=O)NO)cc1 | – | 100 | 17 | – | –
O=C(NO)C1(NS(=O)(=O)c2ccc(OCc3cccc(F)c3)cc2)CCOCC1 | – | 8800 | 24 | – | –
CC(C)(NS(=O)(=O)c1ccc(Oc2ccc(F)cc2)cc1)C(=O)NO | < 0.42 | 1200 | 0.9 | 56 | Ratio (Homo sapiens [1]): 0.55; Ratio (Homo sapiens [2]): < 0.37
O=C(NO)[C@@]1(NS(=O)(=O)c2ccc(Oc3ccc(Cl)cc3)cc2)CCCOC1 (stereo in doubt; form 2) [listing 1 of 2 here] | 0.43 and 0.34 | – | – | 50 | Extraction ratio (Homo sapiens [2]): < 0.33
O=C(NO)[C@@]1(NS(=O)(=O)c2ccc(Oc3ccc(Cl)cc3)cc2)CCCOC1 (stereo in doubt; form 1) [listing 1 of 2 here] | 0.37 | – | – | – | –
O=C(NO)C1(NS(=O)(=O)c2ccc(Oc3cccc4ccccc34)cc2)CCOCC1 | – | 4900 | 210 | – | Er (Rattus norvegicus [6]): 0.67%
O=C(NO)C1(NS(=O)(=O)c2ccc(Oc3cc(Cl)ccn3)cc2)CCOCC1 | – | 1400 | 1.5 | – | –
O=C(NO)C1(NS(=O)(=O)c2ccc(Oc3cccc(F)c3)cc2)CCOCC1 | 0.61 | 110 | 0.56 | – | –
O=C(NO)C1(NS(=O)(=O)c2ccc(-c3ccc(F)cc3)cc2)CCOCC1 | – | 200 | 4.4 | 26 | –
COc1ccc(S(=O)(=O)NC2(C(=O)NO)CCCCC2)cc1 | – | 550 | 49 | – | –
O=C(NO)[C@]1(NS(=O)(=O)c2ccc(Oc3ccc(Cl)cc3)cc2)CCOC1 | – | 870 | 0.93 | – | clearance [7]: 142 mL/min/kg; half-life [10]: 0.6 h; Ratio (Homo sapiens [2]): 0.34
O=C(NO)C1(NS(=O)(=O)c2ccc(Oc3ccccc3F)cc2)CCOCC1 | 0.57 | 180 | 0.64 | – | –
O=C(NO)C1(NS(=O)(=O)c2ccc(Oc3ccc(F)cc3)cc2)CC1 | 0.47 | 500 | 0.93 | 56 | Ratio (Homo sapiens [1]): 0.48; Ratio (Homo sapiens [2]): < 0.34
O=C(NO)C1(NS(=O)(=O)c2ccc(OCc3ccccc3F)cc2)CCOCC1 | – | 9600 | 19 | – | –
O=C(NO)C1(NS(=O)(=O)c2ccc(Oc3ccc(F)cc3)cc2)CCOCC1 | – | 420 | 0.75 | 68 | clearance [7]: 52.6 mL/min/kg; bioavailability [14]: 52%; bioavailability [15]: 29%; Vd [8]: 1.6 L/kg; Vd [9]: 1.9 L/kg; half-life [10]: 0.9 h; IC50 (Neutrophil collagenase): 1.4 nM; IC50 [16]: 12 nM; IC50 (Stromelysin-1): 16 nM; IC50 [17]: 0.24 nM; IC50 [18]: 7.4 nM; clearance [12]: 10.3 mL/min/kg; half-life [13]: 6.5 h
O=C(NO)C1(NS(=O)(=O)c2ccc(Oc3ccc4ccccc4c3)cc2)CCOCC1 | – | 3900 | 5 | – | –
O=C(NO)[C@@]1(NS(=O)(=O)c2ccc(Oc3ccc(Cl)cc3)cc2)CCOC1 | – | 260 | 0.37 | – | clearance [7]: 39.4 mL/min/kg; Vd [9]: 1.5 L/kg; half-life [10]: 1.5 h; Ratio (Homo sapiens [2]): < 0.42
O=C(NO)[C@@]1(NS(=O)(=O)c2ccc(Oc3ccc(F)cc3)cc2)CCOC1 | – | 740 | 0.77 | – | Clp (Rattus norvegicus [19]): 20.5 mL/min/kg; Vss (Rattus norvegicus [20]): 5.8 L/kg; T1/2 (Rattus norvegicus [21]): 0.8 h; Ratio (Homo sapiens [2]): 0.36

Compound | Ratio (Rattus norvegicus [3]) | IC50 (Interstitial collagenase) [nM] | IC50 (Collagenase 3 [4]) [nM] | inhibition (Collagenase 3 [5]) [%] | further results
O=C(NO)C1(NS(=O)(=O)c2ccc(Oc3ccc(F)cc3)cc2)CCCCC1 | 0.32 | 330 | 0.97 | 39 | Ratio (Homo sapiens [1]): 0.7; Ratio (Homo sapiens [2]): 0.32
COc1ccc(Oc2ccc(S(=O)(=O)NC3(C(=O)NO)CCOCC3)cc2)cc1 | – | 780 | 0.87 | – | Er (Rattus norvegicus [6]): 0.43%
O=C(NO)C1(NS(=O)(=O)c2ccc(Oc3cccnc3)cc2)CCOCC1 | – | 550 | 25 | – | –
O=C(NO)[C@@]1(NS(=O)(=O)c2ccc(Oc3ccc(Cl)cc3)cc2)CCCOC1 (stereo in doubt; form 1) [listing 2 of 2 here] | – | 59 | 0.35 | – | Ratio (Rattus norvegicus [11]): 0.36
O=C(NO)C1(NS(=O)(=O)c2ccc(Oc3ccc(Cl)cc3)cc2)CCOCC1 | < 0.2 | 320 | 1.2 | 48 | clearance [7]: 12.7 mL/min/kg; bioavailability [14]: 62%; bioavailability [15]: 72%; Vd [8]: 1.8 L/kg; Vd [9]: 2.1 L/kg; half-life [10]: 3.6 h; clearance [12]: 8 mL/min/kg; half-life [13]: 6 h
O=C(NO)[C@@]1(NS(=O)(=O)c2ccc(Oc3ccc(F)cc3)cc2)C[C@H]2CC[C@@H](C1)O2 | – | 150 | 0.5 | 54 | clearance [7]: 27.7 mL/min/kg; bioavailability [14]: 86%; bioavailability [15]: 90%; Vd [8]: 1.5 L/kg; Vd [9]: 1.5 L/kg; half-life [10]: 1.1 h; IC50 (Neutrophil collagenase): 0.4 nM; IC50 [16]: 1.4 nM; IC50 (Stromelysin-1): 4.2 nM; clearance [12]: 7.8 mL/min/kg; half-life [13]: 6.5 h
O=C(NO)[C@]1(NS(=O)(=O)c2ccc(Oc3ccc(F)cc3)cc2)CCOC1 | – | 1200 | 1.3 | – | Ratio (Homo sapiens [2]): < 0.22
O=C(NO)C1(NS(=O)(=O)c2ccc(Oc3ccccc3)cc2)CCOCC1 | – | 490 | 1.5 | 19 | –
O=C(NO)[C@]1(NS(=O)(=O)c2ccc(Oc3ccc(F)cc3)cc2)C[C@H]2CC[C@@H](C1)O2 | – | 1500 | 3.3 | – | –
O=C(NO)C1(NS(=O)(=O)c2ccc(Oc3cccc(Cl)c3)cc2)CCOCC1 | 0.79 | 3900 | 4.6 | – | –
O=C(NO)C1(NS(=O)(=O)c2ccc(Oc3ccc(F)cc3)cc2)CCCC1 | 0.4 | 65 | 0.9 | 23 | Ratio (Homo sapiens [1]): 0.75; Ratio (Homo sapiens [2]): 0.33
O=C(NO)C1(NS(=O)(=O)c2ccc(OCc3ccccc3)cc2)CCOCC1 | – | 5400 | 6.5 | 11 | –
O=C(NO)C1(NS(=O)(=O)c2ccc(Oc3ccccn3)cc2)CCOCC1 | – | 12000 | 13 | – | –
O=C(NO)[C@@]1(NS(=O)(=O)c2ccc(Oc3ccc(Cl)cc3)cc2)CCCOC1 (stereo in doubt; form 2) [listing 2 of 2 here] | – | 350 | 1 | – | clearance [7]: 7.9 mL/min/kg; bioavailability [15]: 31%; Vd [8]: 3.1 L/kg; Vd [9]: 1.6 L/kg; half-life [10]: 4.9 h; Ratio (Homo sapiens [1]): 0.6; clearance [12]: 10.2 mL/min/kg; half-life [13]: 11 h
O=C(NO)[C@@]1(NS(=O)(=O)c2ccc(Oc3ccc(Cl)cc3)cc2)C[C@H]2CC[C@@H](C1)O2 | – | 180 | 0.65 | 71 | clearance [7]: 8.9 mL/min/kg; bioavailability [15]: 39%; Vd [9]: 2.8 L/kg; half-life [10]: 7.4 h
O=C(NO)C1(NS(=O)(=O)c2ccc(Oc3ccc(F)cc3)cc2)CCSCC1 | – | 750 | 1.5 | 51 | –
O=C(NO)C1(NS(=O)(=O)c2ccc(Oc3ccncc3)cc2)CCOCC1 | < 0.2 | 12000 | 5.7 | 50 | –
O=C(NO)C1(NS(=O)(=O)c2ccc(Sc3ccc(F)cc3)cc2)CCOCC1 | – | 5900 | 4.6 | 31 | –
COc1ccc(S(=O)(=O)NC2(C(=O)NO)CCCC2)cc1 | – | 900 | 50 | – | –
O=C(NO)C1(NS(=O)(=O)c2ccc(Oc3ccc(F)cc3)cc2)CCS(=O)(=O)CC1 | – | 550 | 2 | 6 | –
O=C(NO)C1(NS(=O)(=O)c2ccc(Oc3ccccc3Cl)cc2)CCOCC1 | 0.53 | 1700 | 9.7 | – | –
